Reference: US12600731B2, “Isoxazolo[5,4-H]quinazoline compounds as protein kinase inhibitors” (CHENGDU CYNOGEN BIO-PHARMACEUTICAL TECHNOLOGY CO., LTD., priority 2019, dated 2026)
pIC50: −log10 of the molar value. Where a name gives a salt, the structure may show the parent alone.

Columns and labels:
Type in all cases: biochemical
CDK4/cyclin D3 = CDK4/cyclin D3 (Homo sapiens, UniProt P11802); test: Kinase activity assay, Caliper Mobility Shift Assay, CDK4/cyclin D3; details: 10 nM kinase, ATP 250 μM, 150 minutes at room temperature
CDK4/cyclin D3, sequence (P11802 whole entry, species assumed): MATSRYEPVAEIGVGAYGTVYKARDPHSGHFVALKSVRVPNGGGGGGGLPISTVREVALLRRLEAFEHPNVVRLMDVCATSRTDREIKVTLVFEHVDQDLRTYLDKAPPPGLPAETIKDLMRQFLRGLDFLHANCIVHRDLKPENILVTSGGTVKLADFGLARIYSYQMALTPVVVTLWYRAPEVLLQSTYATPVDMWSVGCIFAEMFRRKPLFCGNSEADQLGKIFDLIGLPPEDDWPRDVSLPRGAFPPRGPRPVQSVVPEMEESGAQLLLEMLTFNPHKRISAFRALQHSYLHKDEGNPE
CDK4/cyclin D3, sequence (P30281 whole entry partner, species assumed): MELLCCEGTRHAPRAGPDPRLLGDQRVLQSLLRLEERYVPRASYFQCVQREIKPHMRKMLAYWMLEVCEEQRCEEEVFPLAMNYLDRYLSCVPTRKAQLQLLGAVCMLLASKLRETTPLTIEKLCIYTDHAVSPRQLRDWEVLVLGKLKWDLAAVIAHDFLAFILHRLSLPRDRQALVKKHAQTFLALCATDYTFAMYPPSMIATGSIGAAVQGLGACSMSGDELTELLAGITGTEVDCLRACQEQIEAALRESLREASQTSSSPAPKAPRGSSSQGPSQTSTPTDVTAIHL
Description: (§1) The inhibitory effect of compounds against the kinase CDK4/cyclin D3 was detected by Caliper Mobility Shift Assay method. The final concentration of the compounds to be tested was set at 10 concentrations starting from 1 μM by 3-fold serial dilution. 5 μL of compounds at 5-fold final concentration and 10 μL of CDK4/cyclin D3 kinase solution at a final concentration of 10 nM was added to a 384-well reaction plate, respectively. The plate was pre-incubated for 10 min at room temperature (with negative control wells containing 10 μL of kinase buffer and 5 μL of 5% DMSO; positive control wells containing 10 μL of kinase solution and 5 μL of 5% DMSO). The reaction was initiated by adding 10 μL of ATP at a final concentration of 250 μM and the corresponding substrate peptide mixture at room temperature for 150 minutes. 30 μL of stop detection solution containing EDTA was added to stop the kinase reaction. Caliper EZ Reader was used to read the conversion rate. Inhibition rate %=(average conversion rate of positive control %−conversion rate of sample %)/(average conversion rate of positive control %−average conversion rate of negative control %). wherein: negative control wells represent the conversion rate readings of wells without enzymatic activity; positive control wells represent conversion readings for wells with no compound inhibition. The log(inhibitor) vs. response—Variable slope of the analysis software GraphPad Prism 5 was used with log concentration value as the X-axis and the percent inhibition rate as the Y-axis to fit the dose-response curve, the IC50 value of each compound on the enzyme activity was thus obtained. Calculation formula: Y=Bottom+(Top−Bottom)/(1+10^((Log IC50−X)*HillSlope)).

CDK2/Cyclin A2 = CDK2/Cyclin A2 (Homo sapiens, UniProt P24941); test: Kinase activity assay, CDK2/Cyclin A2 (tested in a similar manner); details: tested in a similar manner to CDK4/cyclin D3
Description: as §1
(§2) The IC50 values for CDK6/Cyclin D3 and CDK2/Cyclin A2 of compounds of the present disclosure were tested in a similar manner.

CDK6/Cyclin D3 = CDK6/Cyclin D3 (Homo sapiens, UniProt Q00534); test: Kinase activity assay, CDK6/Cyclin D3 (tested in a similar manner); details: tested in a similar manner to CDK4/cyclin D3
CDK6/Cyclin D3, sequence (Q00534 whole entry, species assumed): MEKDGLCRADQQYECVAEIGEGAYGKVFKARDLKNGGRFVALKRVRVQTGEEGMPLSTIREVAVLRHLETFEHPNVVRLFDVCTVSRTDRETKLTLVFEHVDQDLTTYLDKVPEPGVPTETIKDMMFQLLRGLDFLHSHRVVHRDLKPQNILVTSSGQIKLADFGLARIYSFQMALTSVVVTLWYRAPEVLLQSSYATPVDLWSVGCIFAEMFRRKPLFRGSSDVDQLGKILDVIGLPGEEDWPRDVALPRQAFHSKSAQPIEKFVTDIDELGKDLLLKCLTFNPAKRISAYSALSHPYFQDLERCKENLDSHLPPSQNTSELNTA
CDK6/Cyclin D3, sequence (P30281 whole entry partner, species assumed): as the sequence (P30281 whole entry partner, species assumed) above
Description: as §1, §2

Row | SMILES | pIC50 (CDK4/cyclin D3) | pIC50 (CDK2/Cyclin A2) | pIC50 (CDK6/Cyclin D3)
1 | CC(C)c1noc2ccc3cnc(Nc4ccc(N5CCN(C)CC5)cn4)nc3c12 [Compound I-4, 9-isopropyl-N-(5-(4-methylpiperazin-1-yl)pyridin-2-yl)isoxazolo [5,4-H]quinazolin-2-amine] | 9.00 | – | 8.40
2 | CCN1CCN(c2ccc(Nc3ncc4ccc5onc(C(C)C)c5c4n3)nc2C)CC1 [Compound I-7, N-(5-(4-ethylpiperazin-1-yl)-6-methylpyridin-2-yl)-9-isopropylisoxazolo [5,4-H]quinazolin-2-amine] | 7.44 | – | 6.75
3 | Cc1cc(Nc2ncc3ccc4onc(C(C)C)c4c3n2)ncc1N1CCNCC1 [Compound I-2, 9-isopropyl-N-(4-methyl-5-(piperazin-1-yl)pyridin-2-yl)isoxazolo[5,4-H] quinazolin-2-amine] | 8.22 | – | 7.64
4 | CC(C)c1noc2ccc3cnc(Nc4ccc(N5CCNCC5)cn4)nc3c12 [Compound I-1, 9-isopropyl-N-(5-(piperazin-1-yl)pyridin-2-yl)isoxazolo[5,4-H]quinazolin-2-amine hydrochloride] | 8.70 | – | 8.15
5 | CC(C)c1noc2ccc3cnc(Nc4ccc(N5CCN(C(C)C)CC5)cn4)nc3c12 [Compound I-9, 9-isopropyl-N-(5-(4-isopropylpiperazin-1-yl)pyridin-2-yl)isoxazolo [5,4-H]quinazolin-2-amine] | 8.40 | – | 7.85
6 | CC(C)c1noc2ccc3cnc(Nc4ccc(C5CCNCC5)cn4)nc3c12 [Compound I-14, 9-isopropyl-N-(5-(piperidin-4-yl)pyridin-2-yl)isoxazolo[5,4-H] quinazolin-2-amine] | 8.40 | – | 8.00
7 | Cc1nc(Nc2ncc3ccc4onc(C(C)C)c4c3n2)ccc1N1CCNCC1 [Compound I-3, 9-isopropyl-N-(6-methyl-5-(piperazin-1-yl)pyridin-2-yl)isoxazolo[5,4-H] quinazolin-2-amine] | 8.10 | – | 7.44
8 | CCN1CCN(c2cnc(Nc3ncc4ccc5onc(C(C)C)c5c4n3)cc2C)CC1 [Compound I-6, N-(5-(4-ethylpiperazin-1-yl)-4-methylpyridin-2-yl)-9-isopropylisoxazolo[5,4-H] quinazolin-2-amine] | 7.09 | – | 6.42
9 | CC(C)CN1CCN(c2ccc(Nc3ncc4ccc5onc(C(C)C)c5c4n3)nc2)CC1 [Compound I-11, N-(5-(4-isobutylpiperazin-1-yl)pyridin-2-yl)-9-isopropylisoxazolo[5,4-H] quinazolin-2-amine] | 8.10 | – | 7.62
10 | CCN1CCN(c2ccc(Nc3ncc4ccc5onc(C(C)C)c5c4n3)nc2)CC1 [Compound I-5, N-(5-(4-ethylpiperazin-1-yl)pyridin-2-yl)-9-isopropylisoxazolo [5,4-H]quinazolin-2-amine] | 9.00 | – | 8.40
11 | CCN1CCN(Cc2ccc(Nc3ncc4ccc5onc(C(C)C)c5c4n3)nc2)CC1 [Compound I-12, N-(5-((4-ethylpiperazin-1-yl)methyl)pyridin-2-yl)-9-isopropylisoxazolo[5,4-H] quinazolin-2-amine] | 8.05 | – | 7.40
12 | CC(C)c1noc2ccc3cnc(Nc4ccc(N5CCN(C6CC6)CC5)cn4)nc3c12 [Compound I-10, N-(5-(4-eyelopropylpiperazin-1-yl)pyridin-2-yl)-9-isopropylisoxazolo[5,4-H] quinazolin-2-amine] | 7.68 | – | 7.17
13 | CC(C)c1noc2ccc3cnc(Nc4ccc(N5CCOCC5)cn4)nc3c12 [Compound I-8, 9-isopropyl-N-(5-morpholinopyridin-2-yl)isoxazolo[5,4-H] quinazolin-2-amine] | 8.30 | – | 7.82
14 | CC(C)c1noc2ccc3cnc(Nc4ccc(N5CCC(N(C)C)CC5)cn4)nc3c12 [Compound I-13, N-(5-(4-(dimethylamino)piperidin-1-yl)pyridin-2-yl)-9-isopropylisoxazolo [5,4-H]quinazolin-2-amine] | 8.40 | – | 7.92

Results, then the molecule that gave them:

Row | pIC50 (CDK4/cyclin D3) | pIC50 (CDK2/Cyclin A2) | pIC50 (CDK6/Cyclin D3) | SMILES
15 | 8.52 | 8.30 | 8.05 | CC(C)c1noc2ccc3cnc(Nc4ccc(C(=O)N5CCNCC5)cc4)nc3c12 [Compound I-42, (4-((9-isopropylisoxazolo[5,4-H]quinazolin-2-yl)amino)phenyl) (piperazin-1-yl)methanone]
16 | 7.85 | 8.00 | 7.44 | CC(C)c1noc2ccc3cnc(Nc4ccc(N5CCOCC5)cc4)nc3c12 [Compound I-29, 9-isopropyl-N-(4-morpholinophenyl) isoxazolo[5,4-H]quinazolin-2-amine]
17 | 7.20 | – | 6.56 | CC(C)c1noc2c1-c1nc(Nc3ccc(N4CCOCC4)cn3)ncc1CC2 [Compound I-26, 9-isopropyl-N-(5-morpholinopyridin-2-yl)-5,6-dihydroisoxazolo[5,4-H] quinazolin-2-amine]
18 | 7.70 | 7.66 | 7.47 | CC(C)c1noc2ccc3cnc(Nc4ccc(N5CCOCC5)c(F)c4)nc3c12 [Compound I-36, N-(3-fluoro-4-morpholinophenyl)-9-isopropylisoxazolo[5,4-H] quinazolin-2-amine]
19 | 8.70 | 8.40 | 8.30 | CCN1CCN(c2ccc(Nc3ncc4ccc5onc(C(C)C)c5c4n3)cc2)CC1 [Compound I-28, N-(4-(4-ethylpiperazin-1-yl)phenyl)-9-isopropylisoxazolo[5,4-h] quinazolin-2-amine]
20 | 8.70 | 7.92 | 8.15 | CC(C)c1noc2ccc3cnc(Nc4ccc(N(CCN5CCOCC5)S(C)(=O)=O)cc4)nc3c12 [Compound I-41, N-(4-((9-isopropylisoxazolo[5,4-H]quinazolin-2-yl)amino)phenyl)-N-(2-morpholinoethyl) methanesulfonamide]
21 | 8.15 | – | 7.68 | c1cc(Nc2ncc3ccc4onc(C5CCCC5)c4c3n2)ncc1N1CCNCC1 [Compound I-22, 9-cyclopentyl-N-(5-(piperazin-1-yl)pyridin-2-yl)isoxazolo[5,4-H] quinazolin-2-amine]
22 | 8.30 | – | 7.82 | CN1CCN(c2ccc(Nc3ncc4ccc5onc(C6CCCC6)c5c4n3)nc2)CC1 [Compound I-23, 9-cyclopentyl-N-(5-(4-methylpiperazin-1-yl)pyridin-2-yl)isoxazolo[5,4-H]quinazolin-2-amine]
23 | 8.22 | – | 7.49 | CC(C)Cc1noc2ccc3cnc(Nc4ccc(N5CCNCC5)cn4)nc3c12 [Compound I-18, 9-isobutyl-N-(5-(piperazin-1-yl)pyridin-2-yl)isoxazolo[5,4-H]quinazolin-2-amine]
24 | 8.15 | – | 7.41 | CCN1CCN(c2ccc(Nc3ncc4ccc5onc(CC(C)C)c5c4n3)nc2)CC1 [Compound I-20, N-(5-(4-ethylpiperazin-1-yl)pyridin-2-yl)-9-isobutylisoxazolo[5,4-H] quinazolin-2-amine]
25 | 7.89 | – | 7.09 | CC(C)c1noc2c1-c1nc(Nc3ccc(N4CCNCC4)cn3)ncc1CC2 [Compound I-24, 9-isopropyl-N-(5-(piperazin-1-yl)pyridin-2-yl)-5,6-dihydroisoxazolo[5,4-h]quinazolin-2-amine hydrochloride]
26 | 7.96 | – | 7.19 | CCN1CCN(c2ccc(Nc3ncc4c(n3)-c3c(C(C)C)noc3CC4)nc2)CC1 [Compound I-25, N-(5-(4-ethylpiperazin-1-yl)pyridin-2-yl)-9-isopropyl-5,6-dihydroisoxazolo [5,4-H]quinazolin-2-amine]
27 | 8.15 | – | 7.60 | CC(C)c1noc2ccc3cnc(Nc4ccc(N5CCNCC5=O)cn4)nc3c12 [Compound I-16, 1-(6-((9-isopropylisoxazolo[5,4-H]quinazolin-2-yl)amino)pyridin-3-yl)piperazin-2-one]
28 | 7.33 | – | 6.61 | CC(C)Cc1noc2ccc3cnc(Nc4ccc(N5CCOCC5)cn4)nc3c12 [Compound I-21, 9-isobutyl-N-(5-morpholinopyridin-2-yl)isoxazolo[5,4-H]quinazolin-2-amine]
29 | 8.30 | – | 7.68 | CC(C)c1noc2ccc3cnc(Nc4ccc(N5CCS(=O)(=O)CC5)cn4)nc3c12 [Compound I-17, 4-(6-((9-isopropylisoxazolo[5,4-H]quinazolin-2-yl)amino)pyridin-3-yl)thiomorpholine 1,1-dioxide]
30 | 8.15 | – | 7.72 | CC(C)c1noc2ccc3cnc(Nc4ccc(N5CCNCC5)nn4)nc3c12 [Compound I-15, 9-isopropyl-N-(6-(piperazin-1-yl)pyridazin-3-yl)isoxazolo[5,4-H]quinazolin-2-amine]
31 | 8.15 | – | 7.43 | CC(C)Cc1noc2ccc3cnc(Nc4ccc(N5CCN(C)CC5)cn4)nc3c12 [Compound I-19, 9-isobutyl-N-(5-(4-methylpiperazin-1-yl)pyridin-2-yl)isoxazolo[5,4-H] quinazolin-2-amine]
